Reference: ChEMBL document CHEMBL3045111, “Synthesis and herbicidal activities of novel 3-(substituted benzyloxy or phenoxy)-6-methyl-4-(3-trifluoromethylphenyl)pyridazine derivatives” (2012)
The source made the active and inactive calls. The rule behind the calls is not given here.

Assays:
Echinochloa crus-galli [1] = assay: Pre-emergence herbicidal activity against Echinochloa crus-galli (barnyard grass) under greenhouse condition at 750 g /ha measured after 24 days by spray method; assay type: functional; details: 576 h, read-out: GI
Amaranthus retroflexus [2] = assay: Post-emergence herbicidal activity against one-leaf stage Amaranthus retroflexus under greenhouse condition at 150 g /ha measured after 24 days by spray method; assay type: functional; details: 576 h, read-out: GI
[3] = test system: Brassica rapa subsp. oleifera; assay: Post-emergence herbicidal activity against one-leaf stage Brassica rapa subsp. oleifera under greenhouse condition assessed as complete bleaching of leaves at 300 g /ha measured after 24 days by spray method; assay type: functional, organism-based
[4] = test system: Brassica rapa subsp. oleifera; assay: Post-emergence herbicidal activity against one-leaf stage Brassica rapa subsp. oleifera under greenhouse condition assessed as complete bleaching of leaves at 600 g /ha measured after 24 days by spray method; assay type: functional, organism-based
[5] = test system: Brassica rapa subsp. oleifera; assay: Post-emergence herbicidal activity against one-leaf stage Brassica rapa subsp. oleifera under greenhouse condition at 750 g /ha measured after 24 days by spray method; assay type: functional; details: 576 h, read-out: GI
Digitaria [6] = assay: Pre-emergence herbicidal activity against Digitaria adscendens under greenhouse condition at 750 g /ha measured after 24 days by spray method; assay type: functional; details: in Digitaria adscendens, 576 h, read-out: GI
Spirodela polyrhiza [7] = assay: Bleaching herbicidal activity in Spirodela polyrhiza fronds cultured in compound-containing in medium assessed as chlorophyll inhibition at 1 ug/ml after 7 days; assay type: functional; details: 168 h
Amaranthus retroflexus [8] = assay: Post-emergence herbicidal activity against one-leaf stage Amaranthus retroflexus under greenhouse condition assessed as complete bleaching of leaves at 150 g /ha measured after 24 days by spray method; assay type: functional, organism-based
Spirodela polyrhiza [9] = assay: Bleaching herbicidal activity in Spirodela polyrhiza fronds cultured in compound-containing in medium assessed as chlorophyll inhibition at 10 ug/ml after 7 days; assay type: functional; details: 168 h
[10] = test system: Brassica rapa subsp. oleifera; assay: Post-emergence herbicidal activity against one-leaf stage Brassica rapa subsp. oleifera under greenhouse condition assessed as complete bleaching of leaves at 75 g /ha measured after 24 days by spray method; assay type: functional, organism-based
Amaranthus retroflexus [11] = assay: Post-emergence herbicidal activity against one-leaf stage Amaranthus retroflexus under greenhouse condition at 75 g /ha measured after 24 days by spray method; assay type: functional; details: 576 h, read-out: GI
[12] = test system: Brassica rapa subsp. oleifera; assay: Post-emergence herbicidal activity against one-leaf stage Brassica rapa subsp. oleifera under greenhouse condition at 75 g /ha measured after 24 days by spray method; assay type: functional; details: 576 h, read-out: GI
Amaranthus retroflexus [13] = assay: Post-emergence herbicidal activity against one-leaf stage Amaranthus retroflexus under greenhouse condition assessed as complete bleaching of leaves at 300 g /ha measured after 24 days by spray method; assay type: functional, organism-based
Amaranthus retroflexus [14] = assay: Post-emergence herbicidal activity against one-leaf stage Amaranthus retroflexus under greenhouse condition at 600 g /ha measured after 24 days by spray method; assay type: functional; details: 576 h, read-out: GI
Amaranthus retroflexus [15] = assay: Post-emergence herbicidal activity against one-leaf stage Amaranthus retroflexus under greenhouse condition at 300 g /ha measured after 24 days by spray method; assay type: functional; details: 576 h, read-out: GI
[16] = test system: Brassica rapa subsp. oleifera; assay: Pre-emergence herbicidal activity against Brassica rapa subsp. oleifera under greenhouse condition at 750 g /ha measured after 24 days by spray method; assay type: functional; details: 576 h, read-out: GI
Amaranthus retroflexus [17] = assay: Post-emergence herbicidal activity against one-leaf stage Amaranthus retroflexus under greenhouse condition assessed as complete bleaching of leaves at 600 g /ha measured after 24 days by spray method; assay type: functional, organism-based
Amaranthus retroflexus [18] = assay: Pre-emergence herbicidal activity against Amaranthus retroflexus under greenhouse condition at 750 g /ha measured after 24 days by spray method; assay type: functional; details: 576 h, read-out: GI
Echinochloa crus-galli [19] = assay: Post-emergence herbicidal activity against one-leaf stage of Echinochloa crus-galli (barnyard grass) under greenhouse condition at 750 g /ha measured after 24 days by spray method; assay type: functional; details: 576 h, read-out: GI
Amaranthus retroflexus [20] = assay: Post-emergence herbicidal activity against one-leaf stage of Amaranthus retroflexus under greenhouse condition at 750 g /ha measured after 24 days by spray method; assay type: functional; details: 576 h, read-out: GI
[21] = test system: Brassica rapa subsp. oleifera; assay: Post-emergence herbicidal activity against one-leaf stage Brassica rapa subsp. oleifera under greenhouse condition at 600 g /ha measured after 24 days by spray method; assay type: functional; details: 576 h, read-out: GI
[22] = test system: Brassica rapa subsp. oleifera; assay: Post-emergence herbicidal activity against one-leaf stage Brassica rapa subsp. oleifera under greenhouse condition at 150 g /ha measured after 24 days by spray method; assay type: functional; details: 576 h, read-out: GI
Digitaria [23] = assay: Post-emergence herbicidal activity against one-leaf stage of Digitaria adscendens under greenhouse condition at 750 g /ha measured after 24 days by spray method; assay type: functional; details: in Digitaria adscendens, 576 h, read-out: GI
[24] = test system: Brassica rapa subsp. oleifera; assay: Post-emergence herbicidal activity against one-leaf stage Brassica rapa subsp. oleifera under greenhouse condition at 300 g /ha measured after 24 days by spray method; assay type: functional; details: 576 h, read-out: GI
[25] = test system: Brassica rapa subsp. oleifera; assay: Post-emergence herbicidal activity against one-leaf stage Brassica rapa subsp. oleifera under greenhouse condition assessed as complete bleaching of leaves at 150 g /ha measured after 24 days by spray method; assay type: functional, organism-based
Amaranthus retroflexus [26] = assay: Post-emergence herbicidal activity against one-leaf stage Amaranthus retroflexus under greenhouse condition assessed as complete bleaching of leaves at 75 g /ha measured after 24 days by spray method; assay type: functional, organism-based

| Structure (SMILES) | inhibition of growth at 750 g/ha (Echinochloa crus-galli [1]) | inhibition of growth at 150 g/ha (Amaranthus retroflexus [2]) | Activity [3] | Activity [4] | inhibition of growth at 750 g/ha [5] | inhibition of growth at 750 g/ha (Digitaria [6]) | inhibition at 1 µg/mL (Spirodela polyrhiza [7]) | Activity (Amaranthus retroflexus [8]) | inhibition at 10 µg/mL (Spirodela polyrhiza [9]) | Activity [10] | inhibition of growth at 75 g/ha (Amaranthus retroflexus [11]) | inhibition of growth at 75 g/ha [12] | Activity (Amaranthus retroflexus [13]) | inhibition of growth at 600 g/ha (Amaranthus retroflexus [14]) | inhibition of growth at 300 g/ha (Amaranthus retroflexus [15]) | inhibition of growth at 750 g/ha [16] | Activity (Amaranthus retroflexus [17]) | inhibition of growth at 750 g/ha (Amaranthus retroflexus [18]) | inhibition of growth at 750 g/ha (Echinochloa crus-galli [19]) | inhibition of growth at 750 g/ha (Amaranthus retroflexus [20]) | also measured |
| --- | --- | --- | --- | --- | --- | --- | --- | --- | --- | --- | --- | --- | --- | --- | --- | --- | --- | --- | --- | --- | --- |
| Cc1cccc(Oc2nnc(C)cc2-c2cccc(C(F)(F)F)c2)c1 | 29% | 34% | Active | Active | 100% | 43% | 79% | Active | 84% | Active | 29% | 46% | Active | 43% | 38% | 3% | Active | 0% | 40% | 55% | inhibition of growth at 600 g/ha [21]: 70%; inhibition of growth at 150 g/ha [22]: 51%; inhibition of growth at 750 g/ha (Digitaria [23]): 81%; inhibition of growth at 300 g/ha [24]: 63%; Activity [25]: Active |
| Cc1ccc(Oc2nnc(C)cc2-c2cccc(C(F)(F)F)c2)cc1 | 0% | 47% | Active | Active | 100% | 44% | 82% | Active | 94% | Active | 5% | 56% | Active | 76% | 58% | 13% | Active | 0% | 47% | 84% | inhibition of growth at 600 g/ha [21]: 97%; inhibition of growth at 150 g/ha [22]: 67%; inhibition of growth at 750 g/ha (Digitaria [23]): 30%; inhibition of growth at 300 g/ha [24]: 89%; Activity [25]: Active |
| Cc1cc(-c2cccc(C(F)(F)F)c2)c(Oc2cccc(Br)c2)nn1 | 14% | 45% | Active | Active | 100% | 33% | 70% | Active | 79% | Active | 38% | 42% | Active | 73% | 70% | 0% | Active | 0% | 40% | 94% | Activity (Amaranthus retroflexus [26]): Active; inhibition of growth at 600 g/ha [21]: 91%; inhibition of growth at 150 g/ha [22]: 67%; inhibition of growth at 750 g/ha (Digitaria [23]): 40%; inhibition of growth at 300 g/ha [24]: 76%; Activity [25]: Active |
| Cc1cc(-c2cccc(C(F)(F)F)c2)c(Oc2cc(F)cc(F)c2)nn1 | 51% | 96% | Active | Active | 80% | 100% | 80% | Active | 84% | Active | 31% | 55% | Active | 100% | 98% | 65% | Active | 96% | 57% | 100% | inhibition of growth at 600 g/ha [21]: 82%; inhibition of growth at 150 g/ha [22]: 65%; inhibition of growth at 750 g/ha (Digitaria [23]): 48%; inhibition of growth at 300 g/ha [24]: 78%; Activity [25]: Active |
